# Source: patent publication US11510921B2, “Bromocriptine formulations” (VEROSCIENCE LLC, priority 2017, dated 2022)
# Where a name gives a salt, the structure may show the parent alone.
# Legend:
# [1] = Browning (degradation) reaction of bromocriptine with excipients in heated aqueous suspension; assay type: physicochemical
# Protocol: A series of reaction vessels were prepared containing various combinations of bromocriptine mesylate, Mg stearate, and/or lactose, with or without citric acid, in aqueous suspension and reacted at 60° C. for 55 hours. Additionally, samples were prepared wherein the Mg stearate was replaced/substituted with stearic acid.
# 2 ml of distilled water was added to the samples, which were then mixed by vortexing, placed in a reaction chamber with thermostat set at 50° C. for 24 hours, then (after 24 hours) set at 60° C. The color change of the sample solutions/mixtures were evaluated by comparing the color of the solution with a Standardized Color Chart; the color intensities of the sample solutions/mixtures (from clear to dark brown) was graded at specified time points from time 0 to time 55 hours (see FIG. 2). In FIG. 2, a number “0” indicates a clear solution or white suspension; a number “40” represents the darkest solution/suspension observed.
# [2] = Water solubility of formulations versus traditional formulation (Table 11); settings: 20 C
# Protocol: (§1) Effect of constituents on the stability and solubility of bromocriptine formulations. […] The stability and solubility of the formulations are assessed versus a traditional formulation of bromocriptine mesylate as described in Table 1.
# [3] = Heat and humidity stability of formulations versus traditional formulation (Table 11); settings: 40 C and 75% RH; short chain saccharide substituted for lactose
# Protocol: as §1
SMILES,bromocriptine degradation and browning reaction ([1]; addition of citric acid and substitution of Mg stearate with stearic acid),"bromocriptine degradation and browning reaction ([1]; addition of citric acid, Mg stearate alone or Mg stearate and lactose)",browning reaction ([1]; bromocriptine exposed to both Mg stearate and lactose),"browning reaction ([1]; bromocriptine with Mg stearate in aqueous environment, absence of lactose)","bromocriptine degradation ([1]; substitution of Mg stearate with solid castor oil, compared with stearic acid)","bromocriptine degradation and browning reaction ([1]; substitution of Mg stearate with stearic acid, with or without lactose)",Relative Improvement in Water Solubility Versus Traditional Bromocriptine Mesylate Pharmaceutical Formulation ([2]; fatty acid or triglyceride + short chain saccharide),Relative Improvement in Water Solubility Versus Traditional Bromocriptine Mesylate Pharmaceutical Formulation ([2]; fatty acid or triglyceride substituted for Mg stearate),Relative Improvement in Water Solubility Versus Traditional Bromocriptine Mesylate Pharmaceutical Formulation ([2]; short chain saccharide substituted for lactose),Relative Improvement In Heat & Humidity Stability Versus Traditional Bromocriptine Mesylate Pharmaceutical Formulation [3]
"CC(C)C[C@H]1C(=O)N2CCC[C@H]2[C@]2(O)O[C@](NC(=O)[C@@H]3C=C4c5cccc6[nH]c(Br)c(c56)C[C@H]4N(C)C3)(C(C)C)C(=O)N12 [bromocriptine, (5′α)-2-bromo-12′-hydroxy-2′-(1-methylethyl)-5′-(2-methylpropyl)-ergotaman-3′,6′,18-trione]",attenuated bromocriptine degradation and the browning reaction by the greatest magnitude,attenuated bromocriptine degradation and the browning reaction,A more intense browning reaction occurred,a browning product was produced,attenuated bromocriptine degradation to an even greater extent,attenuated bromocriptine degradation and the browning reaction,,,,
"CC(C)C[C@H]1C(=O)N2CCC[C@H]2[C@]2(O)O[C@](NC(=O)[C@@H]3C=C4c5cccc6[nH]c(Br)c(c56)C[C@H]4N(C)C3)(C(C)C)C(=O)N12 [Bromocriptine Mesylate, (5′α)-2-bromo-12′-hydroxy-2′-(1-methylethyl)-5′-(2-methylpropyl)-ergotaman-3′,6′,18-trione monomethanesulfonate salt]",,,,,,,−,−,−,+
